Source: US20230348487A1, “2-AMINOPYRIMIDINE COMPOUND AND PHARMACEUTICAL COMPOSITION THEREOF AND APPLICATION THEREOF” (GUANGZHOU SALUSTIER BIOSCIENCES CO., LTD., priority 2021, published 2023)

Tested on: JAK3-STAT signaling in U937 cells
Assay: Western blot of JAK3-STAT signaling in U937 cells
Assay type: cell-based, human
Protocol: Cell line: human acute myeloid leukemia cell line U937
Time dependent experiment: the tested molecule LS6-45 was co-incubated with U937 cells at a fixed concentration (100 nM), and the total cell protein was extracted at a specific action time. Dose dependent experiment: After co-incubating the tested molecule LS6-45 at different concentrations with U937 cell line for 10 hours, the total cell protein was extracted. Suspended cells U937 were centrifuged to remove the supernatant, washed twice with PBS, and then added an appropriate amount of lysate mixture (RIPA lysate (strong): phosphatase inhibitor mixture (50×): PMSF=100:1:1), lysed for 30 minutes on ice, and centrifugated at 12000 rpm at 4° C. for 15 min). Took the supernatant and discarded the sediment. Took an appropriate amount of supernatant to measure the protein concentration by the BCA method. Then added loading buffer at a 5:1 ratio and boiled at 100° C. for 7 minutes to be used for Western Blot experiments or stored in a −80° C. freezer for later use.
The experimental results are shown in FIG. 4, wherein the Western Blot analysis of compound LS6-45 on JAK3, STAT3, STAT5 proteins and their time/dose-dependent phosphorylation was performed, and GAPDH was used as an internal reference. In FIG. 4, A represents the U937 cell line treated with compound LS6-45 (100 nM) in a time-dependent manner, while B represents the U937 cell line treated with compound LS6-45 in a dose-dependent manner for 10 hours (diluted at five concentrations of 800 nM 1:4).

C=CC(=O)Nc1cc(Nc2ncc(Cl)c(O[C@@H]3CO[C@H]4[C@@H]3OC[C@H]4OC)n2)ccc1N(C)CCN(C)C [LS 6-45]
phosphorylation level of JAK3 (Western blot) (50 nM, 10 hours): significantly weakened
phosphorylation level of JAK3 protein (Western blot) (100 nM, 4 hours): effectively reduced the phosphorylation level of JAK3 protein
JAK3 phosphorylation (Western blot) (100 nM, around 8 hours): completely inhibited JAK3 phosphorylation
phosphorylation levels of downstream proteins STAT3 and STAT5 (100 nM, time course): weakened in a time-dependent manner
phosphorylation level of JAK3 (Western blot) (200 nM, 10 hours): almost completely disappeared
phosphorylation levels of downstream proteins STAT3 and STAT5 (different concentrations, 10 hours): dose-dependent weakening
